# Patent US5331094A, “Purified active somatostatin receptor” (American Cyanamid Company, priority 1992, dated 1994)
# pKd: −log10 of the molar value. Bridge positions count the residues as written; N and C are the ends. Square brackets hold non-standard residues; d marks the D form. Peptide text beside a SMILES is read from it. * marks the point of attachment. Biotin = O=C1N[C@H]2[C@H](CS[C@H]2CCCCC(=O)*)N1; Tyr(3-I) = N[C@@H](Cc1ccc(O)c(I)c1)C(=O)O
# What was measured:
# SRIF receptor [1] = assay: Scatchard analysis of binding of [125I]-labelled SRIF analogs to GH4 C1 membranes; set-up: species or system rat; conditions: GH4 C1 membranes (FIG. 2), read-out: dissociation constant (KD)
# Method: 1. Standard Binding Assays--Binding assays are done in a binding buffer containing 50 mM HEPES (pH 7.4), 0.5% BSA and 5 mM MgCl2. The standard assay for [^125 I]SRIF analog binding to GH4 C1 membranes, done in 96 well microtiter plates (Dynataech Immulon II Removawell plates), is carried out as follows: 1. Radioligand is diluted in binding buffer+ PMSF/Baci to the desired cpm per vol. of 50 μl and then 50 μl aliquots are added to the wells. For non-specific binding samples, 5 μl of 40 μM cold S14 is also added per well. 2. Binding is initiated by adding 150 μl per well of membrane diluted to the desired concentration (10-30 ug membrane protein/well) in binding buffer+ PMSF/Baci. Plates are then covered with Linbro mylar plate sealers (Flow Labs) and placed on a Dynatech Microshaker II and binding is allowed to proceed at room temperature for 1-2 hours. Binding is stopped by centrifuging the plate for 15 minutes at 2,000×g. The supernatants are dumped off and membrane pellets washed once by addition of 200 μl of ice cold binding buffer, brief shaking and recentrifugation. Finally the individual wells are placed in 12×75 mm tubes and counted in an LKB Gammamaster counter (78% efficiency). Specific binding by this method is identical to that measured when free ligand is removed by rapid (3-5 seconds) filtration and washing on polyethyleneimine-coated glass fiber filters.
# Because Bio-C6-S14, Bio-C12-S14 and Bio-S28 all contain tyrosine residues, it is possible to prepare their [^125 I] labelled analogs and carry out Scatchard analyses of their binding affinities relative to [^125 I]Tyr11-S14 (FIG. 2). As shown in the figure, the [^125 I]-labelled peptides fall in the same order of potency as their non-labelled forms. The dissociation constants (KDs) and relative binding affinities are [^125 I]Tyr11-S14 (0.1 nM)>[^125 I]Bio-S28 (0.2 nM)>[^125I]Bio-6C-S14 (0.3 nM)>[^125 I]Bio-12C-S14 (0.4 nM).
# Immobilized Streptavidin [2] = target: T1, Immobilized Streptavidin (Streptomyces avidinii, UniProt P22629); assay: Tracing of SRIF R:L complex with [125I]Bio-S28: adsorption to streptavidin-agarose during purification; format: binding
# T1 construct: purchased Pierce Chemical Co
# T1 sequence (P22629 25-183): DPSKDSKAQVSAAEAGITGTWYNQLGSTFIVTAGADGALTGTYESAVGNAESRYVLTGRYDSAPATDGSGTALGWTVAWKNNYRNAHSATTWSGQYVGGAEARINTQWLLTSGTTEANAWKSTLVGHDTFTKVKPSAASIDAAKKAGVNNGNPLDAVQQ
# Method: 3. Adsorption of solubilized R:L complex to streptavidin. Immobilized streptavidin (streptavidin cross-linked to 6% beaded agarose, Pierce Chemical Co.; "SA-agarose") is washed in solubilization buffer and added to the solubilized membranes as 1/30 of the final volume. This mixture is incubated with constant stirring by end-over-end rotation for 4-5 hours at 4°-10° C. Then the mixture is applied to a column and the non-bound material is washed through. Binding of radioligand to SA-agarose is determined by comparing cpm in the 100,000×g supernatant with that in the column effluent after adsorption to SA-agarose. Finally, the column is washed with 12-15 column volumes of solubilization buffer+0.15% deoxycholate:lysolecithin +1/500 (vol/vol) 100×4pase.
# (§1) A preparation of SRIF receptor is purified from 17 mg GH4 C1 pituitary cell membranes as described in "Methods: Receptor Purification". Some important features of this experiment are as follows: Two 17 mg samples of membranes are used. Both are incubated with 10^-8 M Bio-S28. However, one sample also receives 10^-5 M non-biotinyl S14 for 2-3 minutes before addition of any Bio-S28. This serves to block binding of Bio-S28 and creates a control to show non-specific binding of proteins to the streptavidin column. Also, each sample receives 1.5×10^8 cpm of [^125 I]Bio-S28 as a tracer. This is added 2-3 minutes before the addition of cold Bio-S28. After a 1-hour binding step, the membranes are washed in binding buffer without BSA and solubilized in solubilization buffer containing 0.15% deoxycholate:lysolecithin and 0.2 mM MgCl2. Each 100,000×g supernatant (17 ml) is incubated with 0.6 ml of streptavidin-agarose for 4 hours at 4°-10° C. The SA-agarose is transferred to a 0.7 cm diameter column, washed and eluted with EDTA/EGTA/GTP-gamma-S as described ("Methods: Receptor Purification").
# (§2) Radioligand is followed through the procedure to estimate solubilization of R:L complex and % initial binding of R:L complex to immobilized streptavidin.
# As discussed above, this should approximate the binding of R:L complex to streptavidin.
# Immobilized Streptavidin [3] = target: T1, Immobilized Streptavidin; assay: Binding of [125I]-labelled biotinyl-SRIFs (solubilized R:L complex) to immobilized streptavidin
# Method: (§3) To compare the three biotinyl-SRIF analogs in terms of binding to streptavidin, the following experiment is done. [^125 I]Bio-SRIF analogs are bound to GH4 C1 membranes as described ("Methods: Receptor Binding Methods, 3"). All radioligands are at a concentration of […] cpm/ml. For each radioligand, a control for non-specific binding was done in the presence of 1 uM cold S14. CPM bound/mg membrane protein after the binding step are as follows: [^125 I]Bio-6C-S14=755,020 (total) and 43,361 (non-specific); [^125 I]Bio-12C=S14=633,134 (total) and 39,538 (nonspecific); [^125 I]Bio-S28=1,065,512 (total) and 35,049 (nonspecific). The membrane pellets are solubilized in solubilization buffer containing 0.15% deoxycholate:lysolecithin and 0.2 mM MgCl2 as described ("Methods: Membrane Solubilization"). […] One ml samples of solubilized membranes are incubated with 0.05 ml vols of streptavidin-agarose at 4°-10° C. on a tube rotator for the times shown. Non-specific binding samples are not done due to the low levels of non-specific binding. At the times shown, the […] beads are spun down and 100 ul samples of supernatant are counted. The cpm are compared to initial cpm in the sample and % binding to SA is calculated from this. Also, it should be noted that binding of cpm from the supernatant is considered to parallel the binding of R:L complex. Several observations confirm that this is a valid assumption.
# SRIF receptor [4] = assay: Binding of [125I]Bio-SRIF analogs to GH4 C1 membranes (CPM bound); set-up: species or system rat
# Method: 3. Chemical cross-linking of radioligand with receptor is done after a binding step identical to the standard assay. However, the wash step is done with binding buffer minus BSA to reduce the possibility of non-specific cross-linking of radioligand with BSA. The cross-linking step is carried out as described below.
# as §3
# SRIF receptor [5] = assay: Tracing of SRIF R:L complex with [125I]Bio-S28: membrane binding and deoxycholate:lysolecithin solubilization; set-up: species or system rat
# Method: 1. Binding of biotinyl-SRIF to GH4 C1 membranes. The binding step is carried out as described in Section 4 of "Receptor Binding Methods". Incubations are for 1 hour at room temperature. In the standard purification protocol, the binding incubations contain 10 nM Bio-S29/ [^125 I]Bio-S28 is added as a tracer at levels of 5,000-100,000 cpm per mg of membrane protein. Control incubations contain 10 uM cold S14 to saturate the receptor with non-biotinylated ligand.
# 2. Solubilization of receptor:ligand complex. This is done as described ("Membrane Solubilization"), with 0.15% deoxycholate:lysolecithin in solubilization buffer containing 0.2 mM MgCl2, to obtain 100,000×g supernatants containing solubilized R:L complex.
# as §1, §2
# SRIF receptor [6] = conditions: pituitary cells; Kirk et al. 1984; cited from earlier work
# [7] = 10^-8 M Bio-S28 + 10^-5 M S14 (NSB)
Compound,pKd (SRIF receptor [1]),Solubilized CPM Non-Bound to Streptavidin (%) (Immobilized Streptavidin [2]; 10^-8 M Bio-S28),Solubilized CPM Non-Bound to Streptavidin (%) (Immobilized Streptavidin [2]; [7]),specifically bound radioligand bound to streptavidin (Immobilized Streptavidin [2]; calculation from Table 2) [%],"Initial CPM (Immobilized Streptavidin [3]; 100 ul of initial 100,000 x g supernatant containing soluble R:L complex)","CPM (non-bound), 1 hour (Immobilized Streptavidin [3]; 100 ul supernatant after 1 hour incubation with SA-agarose, 4-10 C)","CPM (non-bound), 3 hours (Immobilized Streptavidin [3]; 100 ul supernatant after 3 hours incubation with SA-agarose, 4-10 C)","% Binding of Radioligand to SA-Agarose, 1 hour, % Bound (Immobilized Streptavidin [3]; 1 hour incubation with SA-agarose) [%]","% Binding of Radioligand to SA-Agarose, 3 hours, % Bound (Immobilized Streptavidin [3]; 3 hours incubation with SA-agarose) [%]","CPM bound/mg membrane protein (total) (SRIF receptor [4]; after the binding step, total)",CPM bound/mg membrane protein (non-specific) (SRIF receptor [4]; in the presence of 1 uM cold S14),CPM Solubilized by Deoxycholate:Lysolecithin (%) (SRIF receptor [5]; 10^-8 M Bio-S28),CPM Initially Bound to Membranes (SRIF receptor [5]; [7]),CPM Solubilized by Deoxycholate:Lysolecithin (%) (SRIF receptor [5]; [7]),CPM Initially Bound to Membranes (SRIF receptor [5]; ligand in binding step 10^-8 M Bio-S28),decrease of binding of [125I]Tyr1-SRIF (SRIF receptor [6])
CC(C)C[C@H](NC(=O)[C@H](C)NC(=O)[C@@H]1CCCN1C(=O)[C@H](CC(N)=O)NC(=O)[C@H](CO)NC(=O)[C@H](CC(N)=O)NC(=O)[C@H](C)NC(=O)[C@H](CO)NC(=O)CCCC[C@@H]1SC[C@@H]2NC(=O)N[C@@H]21)C(=O)N[C@@H](C)C(=O)N1CCC[C@H]1C(=O)N[C@@H](CCCNC(=N)N)C(=O)N[C@@H](CCC(=O)O)C(=O)N[C@@H](CCCNC(=N)N)C(=O)N[C@@H](CCCCN)C(=O)N[C@@H](C)C(=O)NCC(=O)N[C@H]1CSSC[C@@H](C(=O)O)NC(=O)[C@H](CO)NC(=O)[C@H]([C@@H](C)O)NC(=O)[C@H](Cc2ccc(O)c(I)c2)NC(=O)[C@H]([C@@H](C)O)NC(=O)[C@H](CCCCN)NC(=O)[C@@H](Cc2c[nH]c3ccccc23)NC(=O)[C@H](Cc2ccccc2)NC(=O)[C@H](Cc2ccccc2)NC(=O)[C@H](CC(N)=O)NC(=O)[C@H](CCCCN)NC1=O [[^125 I]Bio-S28] (Biotin-SANSNPALAPRERKAGCKNFF[dW]KT[Tyr(3-I)]TSC-OH; disulfide 17-28),9.70,28,15,72,"92,534 CPM","31,645 CPM","17,098 CPM",66,82,"1,065,512 CPM bound/mg membrane protein","35,049 CPM bound/mg membrane protein",91,"9,316 CPM",73,"59,132 CPM",
pertussis toxin,,,,,,,,,,,,,,,,more than 95%
